In ChEMBL document CHEMBL4261572, “Design, synthesis and biological evaluation of tacrine-1,2,3-triazole derivatives as potent cholinesterase inhibitors” (Medchemcomm, 2018):

What was measured:
Acetylcholinesterase [1] = target: Acetylcholinesterase (Electrophorus electricus, UniProt O42275); experiment: Inhibition of electric eel AChE after 15 mins by DTNB reagent based assay
Cholinesterase [2] = target: Cholinesterase (Equus caballus, UniProt P81908); experiment: Inhibition of horse serum BChE after 15 mins by DTNB reagent based assay
Cholinesterase (Equus caballus, UniProt P81908), sequence (P81908 whole entry): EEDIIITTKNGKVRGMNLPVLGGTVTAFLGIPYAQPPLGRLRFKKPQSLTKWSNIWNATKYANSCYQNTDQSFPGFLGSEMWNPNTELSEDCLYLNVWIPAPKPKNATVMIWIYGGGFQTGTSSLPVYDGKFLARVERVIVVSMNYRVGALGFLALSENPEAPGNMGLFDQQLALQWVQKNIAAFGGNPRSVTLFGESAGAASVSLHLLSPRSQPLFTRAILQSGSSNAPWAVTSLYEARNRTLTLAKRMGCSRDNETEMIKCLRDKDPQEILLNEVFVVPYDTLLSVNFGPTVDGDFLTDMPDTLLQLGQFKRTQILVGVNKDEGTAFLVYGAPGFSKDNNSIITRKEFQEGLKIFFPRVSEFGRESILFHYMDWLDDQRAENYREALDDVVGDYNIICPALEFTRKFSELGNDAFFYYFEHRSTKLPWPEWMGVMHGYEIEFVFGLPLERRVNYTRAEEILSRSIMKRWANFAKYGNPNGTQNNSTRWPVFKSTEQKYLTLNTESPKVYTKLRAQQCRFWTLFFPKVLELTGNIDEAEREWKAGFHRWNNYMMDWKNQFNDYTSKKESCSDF

Acetylcholinesterase [3] = target: Acetylcholinesterase (Homo sapiens, UniProt P22303); experiment: Inhibition of AChE (unknown origin)
Acetylcholinesterase (Homo sapiens, UniProt P22303), sequence (P22303 whole entry): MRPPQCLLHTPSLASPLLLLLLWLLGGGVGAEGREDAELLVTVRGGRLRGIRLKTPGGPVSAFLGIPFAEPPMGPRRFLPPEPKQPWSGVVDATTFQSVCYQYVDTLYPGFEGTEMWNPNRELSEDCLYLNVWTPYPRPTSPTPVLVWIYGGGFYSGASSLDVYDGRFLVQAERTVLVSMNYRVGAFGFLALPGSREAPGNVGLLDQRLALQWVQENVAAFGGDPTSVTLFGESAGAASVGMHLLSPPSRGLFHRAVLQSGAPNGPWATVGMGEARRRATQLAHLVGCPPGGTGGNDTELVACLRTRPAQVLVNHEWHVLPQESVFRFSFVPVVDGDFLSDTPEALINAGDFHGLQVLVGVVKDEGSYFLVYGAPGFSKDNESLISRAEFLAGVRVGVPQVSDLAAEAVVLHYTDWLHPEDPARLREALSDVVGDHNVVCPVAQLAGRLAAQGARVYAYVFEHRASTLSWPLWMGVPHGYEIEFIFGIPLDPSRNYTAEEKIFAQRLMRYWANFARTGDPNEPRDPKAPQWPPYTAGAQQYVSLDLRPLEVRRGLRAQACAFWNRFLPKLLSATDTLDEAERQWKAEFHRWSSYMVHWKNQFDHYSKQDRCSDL

Cholinesterase [4] = target: Cholinesterase (Homo sapiens, UniProt P06276); experiment: Inhibition of BChE (unknown origin)
Cholinesterase (Homo sapiens, UniProt P06276), sequence (P06276 whole entry): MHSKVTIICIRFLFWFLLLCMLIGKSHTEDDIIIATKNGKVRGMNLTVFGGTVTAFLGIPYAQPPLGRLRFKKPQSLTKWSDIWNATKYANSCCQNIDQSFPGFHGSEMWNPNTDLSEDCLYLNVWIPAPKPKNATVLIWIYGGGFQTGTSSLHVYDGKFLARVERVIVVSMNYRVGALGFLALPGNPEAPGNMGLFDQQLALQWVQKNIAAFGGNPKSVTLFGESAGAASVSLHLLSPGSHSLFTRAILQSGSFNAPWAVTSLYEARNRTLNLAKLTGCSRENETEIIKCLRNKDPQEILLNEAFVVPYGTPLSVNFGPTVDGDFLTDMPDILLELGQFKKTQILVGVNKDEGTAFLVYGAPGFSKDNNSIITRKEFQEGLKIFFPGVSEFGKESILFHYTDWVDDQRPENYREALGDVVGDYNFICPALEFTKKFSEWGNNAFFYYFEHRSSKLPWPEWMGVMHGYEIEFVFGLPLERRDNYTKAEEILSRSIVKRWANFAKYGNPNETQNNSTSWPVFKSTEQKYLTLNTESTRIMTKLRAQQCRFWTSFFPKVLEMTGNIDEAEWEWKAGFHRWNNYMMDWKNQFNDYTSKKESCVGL

Butyrylcholinesterase = Butyrylcholinesterase (Rattus norvegicus, UniProt Q9JKC1); experiment: Inhibition of rat serum BChE using butyrylthiocholine iodide as substrate measured after 8 mins in presence of AChE inhibitor BW284c51 by Ellman's method
Butyrylcholinesterase, sequence (Q9JKC1 whole entry): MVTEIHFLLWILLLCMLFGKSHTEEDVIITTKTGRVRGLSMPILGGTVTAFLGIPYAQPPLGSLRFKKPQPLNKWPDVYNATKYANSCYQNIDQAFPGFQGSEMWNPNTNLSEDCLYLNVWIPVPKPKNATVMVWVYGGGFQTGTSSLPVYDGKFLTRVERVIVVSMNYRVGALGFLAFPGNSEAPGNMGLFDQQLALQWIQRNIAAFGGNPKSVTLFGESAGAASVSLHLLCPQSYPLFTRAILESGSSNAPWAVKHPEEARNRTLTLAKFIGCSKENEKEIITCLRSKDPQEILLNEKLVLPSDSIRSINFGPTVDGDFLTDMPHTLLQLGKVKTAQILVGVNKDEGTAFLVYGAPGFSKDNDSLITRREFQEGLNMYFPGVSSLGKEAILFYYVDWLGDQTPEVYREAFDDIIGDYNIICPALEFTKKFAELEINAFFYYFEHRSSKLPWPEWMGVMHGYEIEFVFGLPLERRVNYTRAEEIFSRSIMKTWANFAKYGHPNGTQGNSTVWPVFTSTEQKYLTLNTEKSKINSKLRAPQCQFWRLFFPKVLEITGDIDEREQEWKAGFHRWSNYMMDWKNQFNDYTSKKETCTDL

Acetylcholinesterase [5] = target: T1, Acetylcholinesterase (Rattus norvegicus, UniProt P37136); experiment: Inhibition of rat brain AChE using acetylthiocholine iodide as substrate measured after 8 mins in presence of BChE inhibitor ethopropazine by Ellman's method
T1 sequence (P37136 whole entry): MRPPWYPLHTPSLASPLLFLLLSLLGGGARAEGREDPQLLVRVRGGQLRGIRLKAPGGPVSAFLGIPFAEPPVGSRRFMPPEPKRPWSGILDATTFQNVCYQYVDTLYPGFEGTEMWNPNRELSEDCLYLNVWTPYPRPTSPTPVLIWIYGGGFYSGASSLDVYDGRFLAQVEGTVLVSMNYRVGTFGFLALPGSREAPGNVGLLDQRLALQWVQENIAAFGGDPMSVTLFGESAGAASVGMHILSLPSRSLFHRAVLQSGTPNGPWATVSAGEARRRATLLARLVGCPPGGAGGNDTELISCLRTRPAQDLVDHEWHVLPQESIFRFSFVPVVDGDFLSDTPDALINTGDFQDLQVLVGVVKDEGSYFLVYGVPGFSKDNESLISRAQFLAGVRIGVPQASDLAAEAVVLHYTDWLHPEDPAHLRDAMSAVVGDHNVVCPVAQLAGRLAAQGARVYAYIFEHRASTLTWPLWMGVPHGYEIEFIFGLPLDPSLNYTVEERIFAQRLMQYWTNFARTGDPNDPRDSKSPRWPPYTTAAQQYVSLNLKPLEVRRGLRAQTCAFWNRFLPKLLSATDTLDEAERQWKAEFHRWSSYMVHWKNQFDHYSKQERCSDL

Acetylcholinesterase [6] = target: T1, Acetylcholinesterase; experiment: Inhibition of rat brain AChE
[7] = Selectivity ratio of compound effect for inhibition of horse serum BChE to compound effect for inhibition of electric eel AChE

Acetylcholinesterase (Electrophorus electricus, UniProt O42275), sequence (O42275 whole entry): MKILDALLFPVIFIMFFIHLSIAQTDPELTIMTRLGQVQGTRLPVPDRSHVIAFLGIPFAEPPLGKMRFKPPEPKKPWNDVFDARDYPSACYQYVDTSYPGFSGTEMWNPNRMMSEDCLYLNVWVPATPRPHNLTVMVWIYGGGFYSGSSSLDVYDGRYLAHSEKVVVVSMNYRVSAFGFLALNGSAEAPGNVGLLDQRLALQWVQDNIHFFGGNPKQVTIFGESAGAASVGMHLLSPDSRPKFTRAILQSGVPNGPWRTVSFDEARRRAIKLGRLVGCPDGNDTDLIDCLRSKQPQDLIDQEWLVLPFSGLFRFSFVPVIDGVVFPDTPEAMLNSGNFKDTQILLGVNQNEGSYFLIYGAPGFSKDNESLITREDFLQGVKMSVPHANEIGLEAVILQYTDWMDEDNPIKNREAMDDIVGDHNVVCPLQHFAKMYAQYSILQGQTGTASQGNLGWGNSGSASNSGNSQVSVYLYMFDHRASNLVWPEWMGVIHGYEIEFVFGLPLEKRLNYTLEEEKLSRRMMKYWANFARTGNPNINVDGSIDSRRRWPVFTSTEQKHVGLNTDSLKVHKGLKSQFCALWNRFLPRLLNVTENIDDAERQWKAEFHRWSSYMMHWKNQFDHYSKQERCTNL

Row | SMILES | IC50 (Acetylcholinesterase [1]) | IC50 (Cholinesterase [2]) | further results
1 | O=C(CCCCc1cn(-c2ccnc3cc(Cl)ccc23)nn1)N1CCN(c2c3c(nc4ccccc24)CCCC3)CC1 | 11.1 µM | > 100 µM | –
2 | CCN(CC)c1ccc(/C=C/c2cc(N3CCCCC3)c3ccccc3n2)cc1 | – | – | IC50 (Acetylcholinesterase [3]): 64.1 µM; IC50 (Cholinesterase [4]): 0.2 µM
3 | Clc1ccc2c(-n3cc(CCCN4CCN(c5c6c(nc7ccccc57)CCCC6)CC4)nn3)ccnc2c1 | 4.89 µM | 3.61 µM | –
4 | Clc1ccc2c(-n3cc(CCCCN4CCN(c5c6c(nc7cc(Cl)ccc57)CCCC6)CC4)nn3)ccnc2c1 | 19.6 µM | > 100 µM | –
5 | C1=CCc2c(nc3ccccc3c2NCCCCCCCCNc2ccnc3ccccc23)C1 | – | – | IC50 (Butyrylcholinesterase): 0.126 µM; IC50 (Acetylcholinesterase [5]): 0.0088 µM
6 | Clc1ccc2c(-n3cc(CCCCN4CCN(c5c6c(nc7ccccc57)CCCC6)CC4)nn3)ccnc2c1 | 10 µM | 66.7 µM | –
7 | C#CCN(C)Cc1ccc(OC(=O)N(C)C)c2ncccc12 | – | – | IC50 (Acetylcholinesterase [6]): 0.5 µM
8 | O=C(CCCCc1cn(-c2ccnc3cc(Cl)ccc23)nn1)NCCNc1c2c(nc3cc(Cl)ccc13)CCCC2 | > 100 µM | 6.06 µM | Selectivity ratio [7]: 2
9 | CN(CCCC(=O)N1CCN(c2c3c(nc4ccccc24)CCCC3)CC1)Cc1cn(-c2ccnc3cc(Cl)ccc23)nn1 | > 100 µM | 61.1 µM | –
10 | O=C(CCCCc1cn(-c2ccnc3cc(Cl)ccc23)nn1)N1CCN(c2c3c(nc4cc(Cl)ccc24)CCCC3)CC1 | 18.7 µM | > 100 µM | –
